# Results taken from publication PMC10829302 (BMC Microbiology, 2024).
# Target: T1, tubulin (α/β heterodimer; β-tubulin) (Sus scrofa, UniProt P02554)
# T1 construct: heterodimer of two closely related 55 kDa proteins (α and β tubulins), isolated from Porcine brain tissue; with α-tubulin
# Test: tubulin polymerization assay with purified porcine brain tubulin (Cytoskeleton BK011P), positive control
# Format: biochemical
# T1 sequence (P02554 whole entry): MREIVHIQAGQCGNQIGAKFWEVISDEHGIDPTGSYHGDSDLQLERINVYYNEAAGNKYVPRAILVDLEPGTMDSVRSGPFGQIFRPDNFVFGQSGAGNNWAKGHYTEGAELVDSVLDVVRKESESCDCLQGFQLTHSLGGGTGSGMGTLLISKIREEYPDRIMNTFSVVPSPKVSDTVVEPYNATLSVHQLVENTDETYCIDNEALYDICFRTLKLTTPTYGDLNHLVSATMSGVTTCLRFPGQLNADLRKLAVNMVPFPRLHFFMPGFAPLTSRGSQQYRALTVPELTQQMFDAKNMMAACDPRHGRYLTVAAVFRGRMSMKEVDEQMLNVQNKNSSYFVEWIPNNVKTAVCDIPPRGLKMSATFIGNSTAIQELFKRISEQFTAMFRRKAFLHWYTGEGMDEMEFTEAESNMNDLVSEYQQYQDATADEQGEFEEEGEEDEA
# T1 sequence (P02550 whole entry partner): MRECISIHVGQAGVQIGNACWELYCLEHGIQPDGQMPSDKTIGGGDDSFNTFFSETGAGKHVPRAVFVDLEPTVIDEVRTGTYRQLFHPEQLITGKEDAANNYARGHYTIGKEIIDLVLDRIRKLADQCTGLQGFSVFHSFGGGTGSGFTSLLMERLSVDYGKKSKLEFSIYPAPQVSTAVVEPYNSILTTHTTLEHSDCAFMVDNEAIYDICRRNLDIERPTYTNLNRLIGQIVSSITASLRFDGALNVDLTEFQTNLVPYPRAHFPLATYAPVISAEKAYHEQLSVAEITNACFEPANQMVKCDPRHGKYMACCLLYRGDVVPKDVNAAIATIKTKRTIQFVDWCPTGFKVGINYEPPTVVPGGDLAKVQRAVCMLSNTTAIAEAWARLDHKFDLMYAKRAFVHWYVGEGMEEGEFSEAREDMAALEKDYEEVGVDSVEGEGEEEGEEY
smiles,measurement,value
CC(=O)O[C@H]1C(=O)[C@@]2(C)[C@H]([C@H](OC(=O)c3ccccc3)[C@]3(O)C[C@H](OC(=O)[C@H](O)[C@@H](NC(=O)c4ccccc4)c4ccccc4)C(C)=C1C3(C)C)[C@]1(OC(C)=O)CO[C@@H]1C[C@@H]2O [Paclitaxel],IC50,2340 nM
